Patent publication US20120245137A1 (Zalicus Pharmaceuticals Ltd., priority 2009, published 2012)

How the values were obtained:
[1] = molecular target: human α1G T-type channels (Homo sapiens, UniProt O43497); assay: T-type calcium channel block, whole cell patch clamp, α1G; type: cell-based; details: HEK cells stably expressing human α1G; mainly non-inactivated protocol; values above 10,000 nM represented as 10000
Procedure: T-type calcium channel blocking activity was assayed in human embryonic kidneycells, HEK 293 (Invitrogen), stably transfected with the T-type calcium channel subunits. Briefly, cells were cultured in Dulbecco's modified eagle medium (DMEM) supplemented with 10% fetal bovine serum, 200 U/ml penicillin, and 0.2 mg/mL streptomycin at 37° C. with 5% CO2. At 85% confluency, cells were split with 0.25% trypsin/1 mM EDTA and plated at 10% confluency on glass coverslips. At 12 hours, the medium was replaced, and the cells stably transfected using a standard calcium phosphate protocol and the appropriate calcium channel cDNA's. Fresh DMEM was supplied, and the cells transferred to 28° C./5% CO2.
Standard patch-clamp techniques were employed to identify blockers of T-type currents. Briefly, previously described HEK cell lines stably expressing human α1G, α1H, and α1I T-type channels were used for all the recordings (passage #: 4-20, 37° C., 5% CO2). Whole cell patch clamp experiments were performed using an Axopatch 200B amplifier (Axon Instruments, Burlingame, Calif.) linked to a personal computer equipped with pCLAMP software. Data were analyzed using Clampfit (Axon Instruments) and SigmaPlot 4.0 (Jandel Scientific). To obtain T-type currents, plastic dishes containing semi-confluent cells were positioned on the stage of a ZEISS AXIOVERT S100 microscope after replacing the culture medium with external solution (Table 2). Whole-cell patches were obtained using pipettes (borosilicate glass with filament, O.D.: 1.5 mm, I.D.: 0.86 mm, 10 cm length), fabricated on a SUTTER P-97 puller with resistance values of ˜5 MΩ (Table 3).
T-type currents were reliably obtained by using two voltage protocols: • “non-inactivating,” and • “inactivation.”
Test compounds were dissolved in external solution, 0.1-0.01% DMSO. After ˜10 minutes rest, they were applied by gravity close to the cell using a WPI microfil tubing. The “non-inactivated” pre-pulse was used to examine the resting block of a compound. The “inactivated” protocol was employed to study voltage-dependent block.

[2] = molecular target: N-type calcium channel subunits (α1B, α2δ, and β3a) (Homo sapiens, UniProt Q00975); assay: Block of Cav2.2 channel, whole cell voltage clamp, manual and PatchXpress; type: cell-based; details: Table 5; table follows Assay Example 3 (whole cell voltage clamp / PatchXpress); assay not given
Summary of the method: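 Percent block taken as current amplitude ratio with versus without compound, applied in rising doses; IC50 fitted where one cell received multiple doses. Protocol: 50 ms pulses to +20 mV at 0.067 Hz from […] or −90 mV holding; P/n leak subtraction, no junction-potential correction; manual and PatchXpress recordings.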

human α1G T-type channels, sequence (O43497 whole entry): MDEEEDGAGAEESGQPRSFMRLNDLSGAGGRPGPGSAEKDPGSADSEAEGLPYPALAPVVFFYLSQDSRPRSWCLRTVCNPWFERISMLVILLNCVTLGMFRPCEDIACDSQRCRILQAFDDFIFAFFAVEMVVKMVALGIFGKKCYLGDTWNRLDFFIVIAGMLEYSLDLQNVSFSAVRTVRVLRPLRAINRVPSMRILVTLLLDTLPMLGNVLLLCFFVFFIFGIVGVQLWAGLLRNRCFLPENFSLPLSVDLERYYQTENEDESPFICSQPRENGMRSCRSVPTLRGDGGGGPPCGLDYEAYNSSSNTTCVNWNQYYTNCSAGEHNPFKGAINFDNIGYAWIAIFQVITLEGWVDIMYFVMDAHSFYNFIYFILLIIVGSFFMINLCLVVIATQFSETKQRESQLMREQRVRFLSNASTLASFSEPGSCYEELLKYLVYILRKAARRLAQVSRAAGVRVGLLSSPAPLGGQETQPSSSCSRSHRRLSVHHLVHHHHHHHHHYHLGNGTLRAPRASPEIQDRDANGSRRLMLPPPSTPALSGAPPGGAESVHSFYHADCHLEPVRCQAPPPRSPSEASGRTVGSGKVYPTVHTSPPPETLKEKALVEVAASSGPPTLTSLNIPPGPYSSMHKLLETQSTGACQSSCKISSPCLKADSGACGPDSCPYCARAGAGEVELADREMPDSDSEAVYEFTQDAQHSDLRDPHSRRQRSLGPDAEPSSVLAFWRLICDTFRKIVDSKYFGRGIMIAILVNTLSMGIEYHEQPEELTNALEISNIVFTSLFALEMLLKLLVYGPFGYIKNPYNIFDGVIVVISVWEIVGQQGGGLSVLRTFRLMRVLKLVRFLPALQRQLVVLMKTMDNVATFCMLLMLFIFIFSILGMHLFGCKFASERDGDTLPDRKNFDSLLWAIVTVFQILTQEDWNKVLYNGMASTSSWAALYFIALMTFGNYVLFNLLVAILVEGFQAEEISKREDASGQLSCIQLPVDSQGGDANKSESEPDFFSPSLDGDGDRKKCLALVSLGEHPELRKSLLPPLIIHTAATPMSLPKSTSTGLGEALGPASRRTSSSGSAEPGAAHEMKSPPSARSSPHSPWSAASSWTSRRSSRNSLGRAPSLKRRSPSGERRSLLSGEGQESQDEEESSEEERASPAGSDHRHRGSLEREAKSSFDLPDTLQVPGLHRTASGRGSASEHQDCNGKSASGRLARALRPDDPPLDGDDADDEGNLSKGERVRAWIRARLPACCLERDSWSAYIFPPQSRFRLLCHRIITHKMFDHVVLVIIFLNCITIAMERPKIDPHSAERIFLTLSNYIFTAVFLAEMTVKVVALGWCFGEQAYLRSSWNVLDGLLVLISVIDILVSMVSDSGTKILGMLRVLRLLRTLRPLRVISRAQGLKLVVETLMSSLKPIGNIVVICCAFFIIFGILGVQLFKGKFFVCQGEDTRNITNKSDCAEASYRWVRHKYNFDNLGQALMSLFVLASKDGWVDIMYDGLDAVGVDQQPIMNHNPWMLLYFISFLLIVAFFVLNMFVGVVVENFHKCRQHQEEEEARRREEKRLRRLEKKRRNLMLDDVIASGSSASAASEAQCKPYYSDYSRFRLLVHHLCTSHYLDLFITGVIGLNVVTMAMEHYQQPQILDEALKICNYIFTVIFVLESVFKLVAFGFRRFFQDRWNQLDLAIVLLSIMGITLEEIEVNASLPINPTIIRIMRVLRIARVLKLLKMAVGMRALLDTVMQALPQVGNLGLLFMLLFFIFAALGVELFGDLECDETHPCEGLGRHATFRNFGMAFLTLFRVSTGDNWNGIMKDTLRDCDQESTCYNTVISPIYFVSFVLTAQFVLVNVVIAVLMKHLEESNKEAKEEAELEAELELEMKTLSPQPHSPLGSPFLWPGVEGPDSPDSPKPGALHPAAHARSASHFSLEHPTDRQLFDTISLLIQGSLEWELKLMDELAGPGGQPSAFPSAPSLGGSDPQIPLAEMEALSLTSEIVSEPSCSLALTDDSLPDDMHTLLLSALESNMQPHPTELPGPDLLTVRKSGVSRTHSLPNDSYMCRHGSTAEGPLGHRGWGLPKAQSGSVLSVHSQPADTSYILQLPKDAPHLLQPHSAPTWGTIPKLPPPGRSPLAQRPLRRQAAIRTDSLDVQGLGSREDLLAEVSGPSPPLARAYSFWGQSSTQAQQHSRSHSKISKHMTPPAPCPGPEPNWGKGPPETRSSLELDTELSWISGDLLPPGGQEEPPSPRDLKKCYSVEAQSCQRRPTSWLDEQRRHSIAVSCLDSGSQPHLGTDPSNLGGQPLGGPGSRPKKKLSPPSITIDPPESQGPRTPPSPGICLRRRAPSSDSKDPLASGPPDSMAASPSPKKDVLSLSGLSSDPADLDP

| IC50 [1] | IC50 [2] | Structure (SMILES) |
| --- | --- | --- |
| 0.83 µM | – | CC(C)(CCNC(=O)c1ccnc(C(F)(F)F)n1)S(=O)(=O)c1cc(F)cc(C(F)(F)F)c1 [Compound 534, N-(3-(3-fluoro-5-(trifluoromethyl)phenylsulfonyl)-3-methylbutyl)-2-(trifluoromethyl)pyrimidine-4-carboxamide] |
| 2.12 µM | 870 nM | O=C(NC[C@]1(O)CC[C@@H](S(=O)(=O)c2cccc(C(F)(F)F)c2)CC1)c1ccc(F)c(C(F)(F)F)c1 [Compound 234, 4-fluoro-N-(((1S,4S)-1-hydroxy-4-(3-(trifluoromethyl)phenylsulfonyl)cyclohexyl)methyl)-3-(trifluoromethyl)benzamide] |
| 0.68 µM | – | CC(C)(CNS(=O)(=O)c1cccc2nonc12)S(=O)(=O)c1cccc(C(F)(F)F)c1 [Compound 493] |
| 2.9 µM | 580 nM | Cn1nc(C(F)(F)F)cc1C(=O)NCC1(C)CCC(F)(S(=O)(=O)c2cccc(C(F)(F)F)c2)CC1 (stereo not drawn) [Compound 151, N-((4-fluoro-1-methyl-4-(3-(trifluoromethyl)phenylsulfonyl)cyclohexyl)methyl)-l-methyl-3-(trifluoromethyl)-1H-pyrazole-5-carboxamide] |
| > 10 µM | 470 nM | CN(CC(=O)N[C@H]1CC[C@H](CS(=O)(=O)c2cccc(C(F)(F)F)c2)CC1)C1CCCCC1 [Compound 163] |
| 3.6 µM | 550 nM | CC1(CNC(=O)c2ccc(C(F)(F)F)cn2)CCC(F)(S(=O)(=O)c2cccc(C(F)(F)F)c2)CC1 (centres unmarked) [Compound 152, N-((4-fluoro-1-methyl-4-(3-(trifluoromethyl)phenylsulfonyl)cyclohexyl)methyl)-5-(trifluoromethyl)picolinamide] |
| 0.94 µM | – | CC(C)(CCNC(=O)c1cc(S(C)(=O)=O)ccc1Cl)S(=O)(=O)c1cccc(C(F)(F)F)c1 [Compound 530, 2-chloro-N-(3-methyl-3-(3-(trifluoromethyl)phenylsulfonyl)butyl)-5-(methylsulfonyl)benzamide] |
| 0.85 µM | – | CN(CCC(C)(C)S(=O)(=O)c1cccc(C(F)(F)F)c1)C(=O)c1ccc(C(F)(F)F)cc1S(C)(=O)=O [Compound 508, N-methyl-N-(3-methyl-3-(3-(trifluoromethyl)phenylsulfonyl)butyl)-2-(methylsulfonyl)-4-(trifluoromethyl)benzamide] |
| 1.45 µM | 130 nM | Cn1nc(C(F)(F)F)cc1C(=O)N[C@H]1CC[C@@](F)(S(=O)(=O)c2cccc(C(F)(F)F)c2)CC1 [Compound 241, N-((1S,4S)-4-fluoro-4-(3-(trifluoromethyl)phenylsulfonyl)cyclohexyl)-1-methyl-3-(trifluoromethyl)-1H-pyrazole-5-carboxamide] |
| 0.96 µM | 540 nM | CC1(CNC(=O)c2ccc(C(F)(F)F)cc2S(C)(=O)=O)CCC(F)(S(=O)(=O)c2cccc(C(F)(F)F)c2)CC1 (centres unmarked) [Compound 155, N-((4-fluoro-1-methyl-4-(3-(trifluoromethyl)phenylsulfonyl)cyclohexyl)methyl)-2-(methylsulfonyl)-4-(trifluoromethyl)benzamide] |
| 5.23 µM | 500 nM | CC1(CNC(=O)c2ccc(F)c(Cl)c2)CCC(F)(S(=O)(=O)c2cccc(C(F)(F)F)c2)CC1 (centres unmarked) [Compound 153, 3-chloro-4-fluoro-N-((4-fluoro-1-methyl-4-(3-(trifluoromethyl)phenylsulfonyl)cyclohexyl)methyl)benzamide] |
| 1.61 µM | 340 nM | CS(=O)(=O)c1cc(C(F)(F)F)ccc1C(=O)N[C@H]1CC[C@@](F)(S(=O)(=O)c2cccc(C(F)(F)F)c2)CC1 [Compound 239, N-((1S,4S)-4-fluoro-4-(3-(trifluoromethyl)phenylsulfonyl)cyclohexyl)-2-(methylsulfonyl)-4-(trifluoromethyl)benzamide] |
| 3.81 µM | 130 nM | O=C(N[C@H]1CC[C@@](F)(S(=O)(=O)c2cccc(C(F)(F)F)c2)CC1)c1ccnn1CC(F)(F)F [Compound 245, N-((1S,4S)-4-fluoro-4-(3-(trifluoromethyl)phenylsulfonyl)cyclohexyl)-1-(2,2,2-trifluoroethyl)-1H-pyrazole-5-carboxamide] |
| 0.71 µM | – | Cc1cccc(C(=O)NCC(C)(C)S(=O)(=O)c2cccc(C(F)(F)F)c2)n1 [Compound 485, 6-methyl-N-(2-methyl-2-(3-(trifluoromethyl)phenylsulfonyl)propyl) picolinamide] |
| 0.96 µM | – | CN(CCC(C)(C)S(=O)(=O)c1cccc(C(F)(F)F)c1)C(=O)c1ccc(C(F)(F)F)nc1 [Compound 511, N-methyl-N-(3-methyl-3-(3-(trifluoromethyl)phenylsulfonyl)butyl)-6-(trifluoromethyl)nicotinamide] |
| 0.61 µM | – | CN(CCC(C)(C)S(=O)(=O)c1cccc(C(F)(F)F)c1)C(=O)c1ccc(C(F)(F)F)cn1 [Compound 515, N-methyl-N-(3-methyl-3-(3-(trifluoromethyl)phenylsulfonyl)bulyl)-5-(trifluoromethyl)picolinamide] |
| 0.65 µM | – | CN(CCC(C)(C)S(=O)(=O)c1cccc(C(F)(F)F)c1)C(=O)c1cc(C(F)(F)F)nn1C [Compound 509, N,1-dimethyl-N-(3-methyl-3-(3-(trifluoromethyl)phenylsulfonyl)butyl)-3-(trifluoromethyl)-1H-pyrazole-5-carboxamide] |
| – | 9980 nM | O=C(N[C@H]1CC[C@H](S(=O)(=O)c2cccc(C(F)(F)F)c2)CC1)C1CCOCC1 [Compound 63, N-((1R,4R)-4-(3-(trifluoromethyl)phenylsulfonyl)cyclohexyl)tetrahydro-2H-pyran-4-carboxamide] |
| – | 910 nM | O=C(NC[C@H]1C[C@H](S(=O)(=O)c2cc(F)cc(C(F)(F)F)c2)C1)c1cc(C(F)(F)F)ccn1 [Compound 397, N-(((1R,3R)-3-(3-fluoro-5-(trifluoromethyl)phenylsulfonyl)cyclobutyl)methyl)-4-(trifluoromethyl)picolinamide] |
| – | 2090 nM | O=C(CN[C@H]1C[C@H](S(=O)(=O)c2cccc(C(F)(F)F)c2)C1)N1CCC(C(F)(F)F)CC1 [Compound 214, 2-(trans-3-(3-(trifluoromethyl)phenylsulfonyl)cyclobutylamino)-1-(4-(trifluoromethyl)piperidin-1-yl)ethanone] |
| – | 1870 nM | Cn1nc(C(F)(F)F)cc1C(=O)NC[C@]1(O)CC[C@@H](S(=O)(=O)c2cccc(C(F)(F)F)c2)CC1 [Compound 231, N-(((1S,4S)-1-hydroxy-4-(3-(trifluoromethyl)phenylsulfonyl)cyclohexyl)methyl)-1-methyl-3-(trifluoromethyl)-1H-pyrazole-5-carboxamide] |
| – | 9440 nM | O=C(N[C@H]1CC[C@H](CS(=O)(=O)c2cccc(C(F)(F)F)c2)CC1)c1ccnc(C(F)(F)F)c1 [Compound 176, 2-(trifluoromethyl)-N-((1R,4R)-4-((3-(trifluoromethyl)phenylsulfonyl)methyl)cyclohexyl)isonicotinamide] |
| 0.52 µM | – | CC(C)(CNS(=O)(=O)c1ccc(S(C)(=O)=O)cc1)S(=O)(=O)c1cccc(C(F)(F)F)c1 [Compound 497, N-(2-methyl-2-(3-(trifluoromethyl)phenylsulfonyl)propyl)-4-(methylsulfonyl) benzenesulfonamide] |
